Measurements: patent US7112680B2, “Heterocyclic hydrazones for use as anti-cancer agents” (Austria Wirtschaftsservice Gesellschaft MIT Beschrankter …, priority 2000, dated 2006)
Like-named read-outs stand apart in the source and are kept apart here. One block for each compound: values may come before it.

What was measured:
[1] = system: HT-29 (colon adenocarcinoma); test: Inhibition of tumor cell growth, SRB-assay, HT-29; format: cell-based, human
Experimental: (§1) The KB cell lines were grown in Dulbecco's modified Eagle's medium (4,5 g glucose/l). To the cultures of KB-C1 cells 1 μg of colchicine/ml, and to the hydroxyurea-resistant KB-HU cells 1 mM hydroxyurea was added every other week. […] 3,000 - 10,000 cells in 200 μl medium were seeded per well into 96-well plates. […] Approximately 10,000 cells per 100 μl were seeded in 96-well plates. […] The substances were dissolved in dimethylsulfoxide (DMSO). […] Subsequently, the samples were fixed, washed, and the absorption was determined by a microplate reader.

[2] = system: human tumor grafts (cell lines of FIG. 1); test: Colony forming assay (two-layer soft agar); format: cell-based; settings: for IC50 / IC90 / Mean IC70: mean values of all cell lines tested in FIG. 1, continuous exposure 3 to 6 days; for tumor type selectivity: IC70 pattern, FIG. 1
Experimental: An excellent correlation of drug response in patients and the colony forming assay has been found (Scholz et al, Eur. J. Cancer 25:901–905, 1990). Solid human tumors were grown as grafts in nude mice, removed from the latter, mechanically comminuted and subsequently incubated in an enzyme cocktail consisting of collagenase (1.2–1.8 U/ml), DNAse (375 U/ml) and hyaluronidase (29 U/ml) in RPMI 1640 medium at 37° C. for 30 minutes. The cell mixture was passed through sieves of 200 μm and 50 μm mesh size and washed thereafter twice with PBS (phosphate buffered saline). The percentage of live cells was determined using a Neubauer counting chamber and trypan blue staining.
The colony forming assay was performed according to a two-layer agar technique introduced and modified by Hamburger and Salmon (Hamburger and Salmon, Science, 197:461–463, 1977). The bottom layer consisted of 0.2 ml of Iscoves's Modified Dulbecco's medium with 20% fetal calf serum and 0.75% agar. 8×10^3 to 1.6×10^4 cells were added to the same medium and 0.4% agar and plated in 24-multiwell plates onto the base layer. One day after the plating (with continuous exposure), the substances were added in 0.2 ml medium. Each plate included six controls containing the solvent only, and the treated groups contained 6 concentrations of the substances, each in triplicate. Cultures were incubated at 37° C. and 7% CO2 in a water-saturated atmosphere for 3 to 6 days, depending on the doubling time of the tumor cells. At the time of maximum colony formation with a size of […], counts were performed with an automatic image analysis system. 24 h prior to counting, live colonies were stained with a sterile aqueous solution of 2-(4-iodophenyl)-3-(4-nitrophenyl)-5-phenyltetrazolium chloride (1 mg/ml, 100 μl/well). The results of the tests are given in FIG. 1, and in the following Table 5, respectively. […] Columns pointing towards the right show a slighter than average activity.

[3] = system: HeLa (epitheloid cervix carcinoma); test: Inhibition of tumor cell growth, SRB-assay, HeLa; format: cell-based, human
[4] = system: K562 (chronic myelogenous leukemia); test: Inhibition of tumor cell growth, K562; format: cell-based, human; settings: 72 hours
Experimental: (§2) In order to obtain information about the growth-inhibiting action on tumor cells, the inhibition of the growth of the following human tumor cells was determined: Burkitt's lymphoma (CA 46, ATCC No. CRL 1648), CCRF-CEM (acute lymphoblastic leukemia, ATCC No. CCL 119), K562 (chronic myelogenous leukemia, ATTC No. CCL 243), HeLa (epitheloid cervix carcinoma, ATCC No. CCL 2), MEXF 276L (melanoma), HT-29 (colon adenocarcinoma, ATCC No. HTB 38), KB-3-1 (human oral epidermoid carcinoma, CTCC No. CCL 17), KB-HU hydroxyurea-resistant, multidrug-resistant KB-C1 cells (Akiyama et al, Cell. Mol Genet., 11:117–126, 1985). Burkitt's, CCRF-CEM, HeLa and MEXF 276L cells were grown in RPMI 1640, HT-29 cells in McCoy's 5A medium. The KB cell lines were grown in Dulbecco's modified Eagle's medium (4,5 g glucose/l). To the cultures of KB-C1 cells 1 μg of colchicine/ml, and to the hydroxyurea-resistant KB-HU cells 1 mM hydroxyurea was added every other week. The media were supplemented with 10% fetal calf serum (except Burkitt's lymphoma cells with 15%), 2 mM glutamine, 50 units/ml penicillin and 50 μg/ml streptomycin. Inhibition of growth of HeLa, HT-29, KB and MEXF 276L cells was detected by the SRB-assay (Skehan et al, J. Natl Cancer Inst., 82:1107–1112, 1990). 3,000 - 10,000 cells in 200 μl medium were seeded per well into 96-well plates. Dose-response curves for CCRF-CEM and Burkitt's lymphoma cells were effected by an MTT-assay (Mosman, J. Immunol Methods, 65:55–63, 1983) from Boehringer Mannheim, Mannheim, Germany. Approximately 10,000 cells per 100 μl were seeded in 96-well plates. After an initial incubation of four hours, various substance concentrations were added, and the cells were incubated at 37° C. in a water-saturated atmosphere of 95% air and 5% CO2 for 72 hours. The substances were dissolved in dimethylsulfoxide (DMSO). The concentration of DMSO was 0.5%, and this was not toxic to the cells. Subsequently, the samples were fixed, washed, and the absorption was determined by a microplate reader.

[5] = system: Burkitt's lymphoma (CA 46, ATCC No. CRL 1648); test: Inhibition of tumor cell growth, MTT-assay, Burkitt's lymphoma; format: cell-based, human
Experimental: as §1

[6] = system: KB-HU hydroxyurea-resistant cells; test: Inhibition of tumor cell growth, SRB-assay, KB-HU; format: cell-based, human; settings: Table 4, 72 hours, read-out: In vitro-activity against human tumor cell lines, KB-HU
Experimental: as §2

[7] = system: Burkitt's lymphoma cells; test: Apoptosis determination with propium iodide; format: cell-based, human; settings: for induction of apoptosis (in words): tumor cells; for apoptotic cells: twice the IC50 concentrations, 48 hours, non-treated cells 1.7%
Experimental: In non-treated Burkitt's lymphoma cells, an average of 1.7% are apoptotic. […] The determination of the apoptosis was performed with propium iodide (Nicoletti et al., Rapid and Simple Method for Measuring Thymocyte Apoptosis by Propium Iodine Staining and Flow Cytometry, J. Immunol. Methods, 139, 271–279, 1991).

[8] = system: multidrug-resistant KB-C1 cells; test: Inhibition of tumor cell growth, SRB-assay, KB-C1; format: cell-based, human; settings: read-out: In vitro-activity against human tumor cell lines, KB-C1
Experimental: as §2

[9] = system: KB-3-1 (human oral epidermoid carcinoma); test: Inhibition of tumor cell growth, SRB-assay, KB-3-1; format: cell-based; settings: read-out: In vitro-activity against human tumor cell lines, KB-3-1
Experimental: as §2

[10] = Table 3, 72 hours, read-out: IC50 HT-29 (converted)
[11] = Table 3, 72 hours, read-out: IC50 HeLa (converted)
[12] = Table 3, 72 hours, read-out: IC50 Burkitts
[13] = Table 1, 72 hours, read-out: IC50 HT-29 (converted)
[14] = Table 1, 72 hours, read-out: IC50 HeLa (converted)
[15] = Table 1, 72 hours, read-out: IC50 Burkitts
[16] = Homo sapiens, HT-29, Table 3, 72 hours, read-out: IC50 HT-29 (converted)
[17] = Homo sapiens, HeLa, Table 3, 72 hours, read-out: IC50 HeLa (converted)
[18] = Homo sapiens, CA46, Table 3, 72 hours, read-out: IC50 Burkitts

IC50 [1, 10]: 16100 nM
IC50 [2]: 265 nM
IC90 [2]: 4300 nM
IC50 [3, 11]: 60 nM
IC50 ([4]; Table 3): 330 nM
IC50 [5, 12]: 2140 nM
Compound: CC(=NNc1nc2ccccc2n1C(C)C)c1ccccn1 [Ic-3]
Mean IC70 [2]: 0.750 µM

IC50 [1, 13]: 11000 nM
IC50 [3, 14]: 20 nM
IC50 ([4]; Table 1): 90 nM
IC50 [5, 15]: 1010 nM
Compound: CCC(=NNc1nc2ccccc2n1C)c1ccccn1 [Ia-8]

IC50 [1, 13]: 2880 nM
IC50 [2]: 138 nM
IC90 [2]: 3140 nM
IC50 [3, 14]: 2 nM
IC50 ([4]; Table 1): 40 nM
Compound: Cn1c(NN=C(c2ccccn2)C2CC2)nc2ccccc21 [Ia-24, E/Z-Cyclopropyl-(2-pyridyl)-methanone-(1-methyl-1H-benzo[d]imidazol-2-yl)-hydrazone]
tumor type selectivity ([2]; colony forming assay): selectivity for colon, breast, ovarian, and uterus tumors
Mean IC70 [2]: 0.387 µM

IC50 [1, 13]: > 100000 nM
IC50 [2]: 15 nM
IC90 [2]: 231 nM
IC50 [3, 14]: 530 nM
IC50 ([4]; Table 1): 1680 nM
IC50 [5, 15]: 8430 nM
Compound: Cn1c(NN=C(c2ccccn2)C(C)(C)C)nc2ccccc21 [Ia-20]
Mean IC70 [2]: 0.064 µM

IC50 [1, 16]: 100 nM
IC50 ([2]; Homo sapiens): 760 nM
IC90 ([2]; Homo sapiens): 6300 nM
IC50 [3, 17]: 50 nM
IC50 ([4]; Homo sapiens, K562, Table 3): 700 nM
IC50 [5, 18]: 3480 nM
Compound: CC(=NNc1nc2ccccc2n1-c1ccccc1)c1ccccn1 [Ic-7, 1-(2-Pyridyl)-1-ethanone-1-(1-phenyl-1H-benzo[d]imidazol-2-yl)-hydrazone]
Mean IC70 [2]: 1.741 µM

IC50 [6]: 50 nM
IC50 ([1]; Table 4, 72 hours, read-out: In vitro-activity against human tumor cell lines, HT-29): 5070 nM
IC50 ([3]; Table 4, 72 hours, read-out: In vitro-activity against human tumor cell lines, HeLa): 3740 nM
IC50 ([8]; Table 4, 72 hours): 810 nM
IC50 ([9]; Table 4, 72 hours): 2280 nM
IC50 ([5]; Table 4, 72 hours, read-out: In vitro-activity against human tumor cell lines, Burkitts): 2210 nM
Compound: CC(=NNc1nc2ccccc2n1C)c1cc(N(C)C)ccn1 [Id-12]
induction of apoptosis (in words) [7]: capable of inducing apoptosis
apoptotic cells [7]: 60%

IC50 [1, 10]: 160 nM
IC50 [3, 11]: 130 nM
IC50 ([4]; Table 3): 450 nM
IC50 [5, 12]: 3580 nM
Compound: CC(=NNc1nc2ccccc2n1Cc1ccccc1)c1ccccn1 [Ic-8]

IC50 [1, 13]: 16300 nM
IC50 [2]: 246 nM
IC90 [2]: 3740 nM
IC50 [3, 14]: 17 nM
IC50 ([4]; Table 1): 80 nM
IC50 [5, 15]: 1780 nM
Compound: CCCC(=NNc1nc2ccccc2n1C)c1ccccn1 [Ia-12]
Mean IC70 [2]: 0.603 µM

IC50 [1, 13]: 8740 nM
IC50 [2]: 294 nM
IC90 [2]: 4660 nM
IC50 [3, 14]: 9 nM
IC50 ([4]; Table 1): 60 nM
Compound: Cn1c(NN=C(c2ccccc2)c2ccccn2)nc2ccccc21 [Ia-29]
tumor type selectivity ([2]; colony forming assay): selectivity for colon, breast, ovarian, and uterus tumors
Mean IC70 [2]: 0.741 µM

IC50 [1, 10]: 35100 nM
IC50 [3, 11]: 210 nM
IC50 ([4]; Table 3): 120 nM
IC50 [5, 12]: 1280 nM
Compound: CCCn1c(NN=C(C)c2ccccn2)nc2ccccc21 [Ic-2]

IC50 [1, 10]: 12800 nM
IC50 [2]: 214 nM
IC90 [2]: 3330 nM
IC50 [3, 11]: 10 nM
IC50 ([4]; Table 3): 180 nM
IC50 [5, 12]: 980 nM
Compound: C=CCn1c(NN=C(C)c2ccccn2)nc2ccccc21 [Ic-5]
tumor type selectivity ([2]; colony forming assay): selectivity for colon, breast, ovarian, and uterus tumors
Mean IC70 [2]: 0,607 μM

Compound: NC(=O)NO [hydroxyurea, reference compound]
in vitro anti-tumor activity against human cancer cells (in words) ([2]; colony forming assay, Table 5 / FIG. 1): far lower than that of the compounds according to the invention
apoptotic cells [7]: 7.3%

IC50 ([6]; Homo sapiens): 9940 nM
IC50 ([1]; Homo sapiens, HT-29, Table 4, 72 hours, read-out: In vitro-activity against human tumor cell lines, HT-29): 3360 nM
IC50 ([3]; Homo sapiens, HeLa, Table 4, 72 hours, read-out: In vitro-activity against human tumor cell lines, HeLa): 2350 nM
IC50 ([8]; Homo sapiens, KBC-1, Table 4, 72 hours): 3080 nM
IC50 ([9]; Homo sapiens, KB 3-1, Table 4, 72 hours): 3850 nM
IC50 ([5]; Homo sapiens, CA46, Table 4, 72 hours, read-out: In vitro-activity against human tumor cell lines, Burkitts): 1450 nM
Compound: CC(=NNc1nc2ccccc2n1C)c1cccc(-c2ccccc2)n1 [Id-17, 1-(6-Phenyl-2-pyridyl)-1-ethanone-1-(1-methyl-1H-benzo[d]imidazol-2-yl)-hydrazone]
induction of apoptosis (in words) [7]: capable of inducing apoptosis
apoptotic cells [7]: 85%

IC50 [1, 13]: 5580 nM
IC50 [2]: 188 nM
IC90 [2]: 3770 nM
IC50 [3, 14]: 6 nM
IC50 ([4]; Table 1): 50 nM
Compound: CC(C)C(=NNc1nc2ccccc2n1C)c1ccccn1 [Ia-16]
tumor type selectivity ([2]; colony forming assay): selectivity for colon, breast, ovarian, and uterus tumors
Mean IC70 [2]: 0.521 µM

IC50 [1, 16]: 11900 nM
IC50 [3, 17]: 190 nM
IC50 ([4]; Homo sapiens, K562, Table 3): 60 nM
IC50 [5, 18]: 680 nM
Compound: CCn1c(NN=C(C)c2ccccn2)nc2ccccc21 [Ic-1, 1-(2-Pyridyl)-1-ethanone-1-(1-ethyl-1H-benzo[d]imidazol-2-yl)hydrazone]
